Test results as given in US8563254B2, “Biomarkers of tumor pharmacodynamic response” (Novartis AG, priority 2009, dated 2013).

Assays:
tumor-bearing mice = assay: Serum IL-8 in tumor-bearing mice, summary of both models; assay type: in vivo; conditions: single dose
Description: The in vivo study was carried out in strict accordance with Swiss law for animal protection and was approved by the Swiss Cantonal Veterinary Office of Basel-Stadt. GTL-16 (4×10^6) and A375 cells (5×10^6) were inoculated subcutaneously in the right flank in 200 μl Hanks' balanced salt solution (HBSS) or PBS, respectively. Invasive procedures were performed under Forene anesthesia. All experiments were performed in female Harlan HsdNpa: Athymic Nude-nu mice (Laboratory Animal Services, Novartis Pharma AG, Basel). The animals were kept under optimized hygienic conditions with 12 hr dark, 12 hr light conditions. The animals were fed food and water ad libitum. A single 75 mg/kg and 50 mg/kg dose of Hsp90 inhibitor, NVP-AUY922 was administered to the GTL-16 and A375 tumor-bearing mice, when tumors had reached a mean volume of 200 mm^3-500 mm^3 in size. Mice in the control group were injected with the vehicle (D5W). […]
Human IL-8 levels in cell culture supernatants treated with NVP-AUY922 were initially assessed as part of a multiplexed bead-based cytokine panel (hu 27-plex panel I, Bio-rad Laboratories, Hercules, Calif., USA) with a BioPlex Suspension Array System (Bio-rad). Human IL-8 and mouse KC levels in serum derived from GTL-16 and A375 tumor-bearing mice treated with NVP-AUY922 were measured by single-plex cytokine bead-based assay (Milliplex, Millipore, Billerica, Mass., USA). […]

A375 cells = assay: IL-8 ELISA of A375 culture supernatants; assay type: cell-based, human
Description: A malignant melanoma cell line A375 (American Type Culture Collection, Manassas, Va., USA) and gastric cancer cell line, GTL-16 (Prof Silvia Giordano, Institute for Cancer Research and Treatment, Turin, Italy) were cultured in RPMI 1640 supplemented with 10% FBS and 1% penicillin-streptomycin at 37° C. in 5% CO2 (GIBCO reagents, Invitrogen Corporation, Carlsbad, Calif., USA). Cell numbers were determined by ViCell™ XR Cell Viability Analyzer 2.03 (Beckman Coulter, Inc., Fullerton, Calif., USA). Cells were seeded in poly-D-lysine coated plates (BIOCOAT Cell Environments, Becton Dickinson Biosciences, San Jose, Calif., USA).
Human IL-8 levels in cell culture supernatants from GTL-16 and A375 cells were measured by a sandwich enzyme-linked immunosorbent assay (R&D Systems, Inc., Minneapolis, Minn., USA). Cell culture supernatants were collected from DMSO and NVP-AUY922 treated cells 16, 24, 48 and 72 hr post-treatment and stored at −20° C.
To better characterize the relationship between Hsp90 inhibitor treatment and effects on IL-8 production, GTL-16 and A375 cells were washed and treated for 24 hr with fresh medium containing various concentrations of NVP-AUY922. For this length of treatment time, maximal inhibition of IL-8 accumulation appears to be reached at 0.3 μM as measured by enzyme-linked immunosorbent assay; this equates to 80% and 60% reductions in GTL-16 and A375 cultures, respectively (FIGS. 2A, B).

A375 tumor-bearing mice = assay: Hsp70 expression in A375 xenograft tumors; assay type: in vivo; conditions: single 50 mg/kg dose i.v.
Description: The in vivo study was carried out in strict accordance with Swiss law for animal protection and was approved by the Swiss Cantonal Veterinary Office of Basel-Stadt. GTL-16 (4×10^6) and A375 cells (5×10^6) were inoculated subcutaneously in the right flank in 200 μl Hanks' balanced salt solution (HBSS) or PBS, respectively. Invasive procedures were performed under Forene anesthesia. All experiments were performed in female Harlan HsdNpa: Athymic Nude-nu mice (Laboratory Animal Services, Novartis Pharma AG, Basel). The animals were kept under optimized hygienic conditions with 12 hr dark, 12 hr light conditions. The animals were fed food and water ad libitum. A single 75 mg/kg and 50 mg/kg dose of Hsp90 inhibitor, NVP-AUY922 was administered to the GTL-16 and A375 tumor-bearing mice, when tumors had reached a mean volume of 200 mm^3-500 mm^3 in size. Mice in the control group were injected with the vehicle (D5W). Serum was isolated and tumors dissected over the time course 0-168 hr. Tumors were cut in two halves. One half was paraffin embedded and the other snap frozen, and stored at −80° C.
Total protein lysates were prepared from the GTL-16 and A375 cells with RIPA lysis buffer (Upstate, Millipore Corporation, Charlottesville, Va., USA). […] Proteins were quantified by bicinchoninic acid assay (Pierce Biotechnology, Rockford, Ill., USA) for Western blotting. […]

With `CCNC(=O)c1noc(-c2cc(C(C)C)c(O)cc2O)c1-c1ccc(CN2CCOCC2)cc1` [NVP-AUY922, 5-(2,4-Dihydroxy-5-isopropyl-phenyl)-4-(4-morhpolin-4-ylmethyl-phenyl)-isoxazole-3-carboxylic acid ethylamide] as the compound, how does the “transient decrease in serum IL-8 levels” value (tumor-bearing mice) read?
Its value is 40-70%.

What about the “time within which IL-8 production dramatically declines” value (A375 cells; A375, 0.3 μM) of the same compound?
Its value is at most 16 h.

What about the “concentration at which maximal inhibition of IL-8 accumulation is reached” value (A375 cells; A375, 24 hr treatment) of the same compound?
The value was 0.3 µM.

What about the inhibition at 0.3 µM (A375 cells; Homo sapiens, A-375, A375, 0.3 μM, 24 hr, ELISA, read-out: reduction of IL-8 accumulation (maximal inhibition)) of the same compound?
The inhibition at 0.3 µM was 60%.

What about the “Hsp70 induction in tumor compared with GTL-16 model” value (A375 tumor-bearing mice) of the same compound?
The value was “same pattern of Hsp70 induction”.
